{"source": "patent US20230390416A1", "about": "“COMPOSITIONS FOR INDUCING TUMOR IMMUNITY AND REDUCING DRUG TOLERANCE” (The Brigham and Women's Hospital, Inc., priority 2020, published 2023)", "key": {"[1]": {"conditions": "NPs exemplified in U.S. Pat. No. 10,300,143; cited from earlier work"}, "[2]": {"conditions": "clinical Cmax from published literature; used as ex vivo treatment concentration, 72 hours; cited from earlier work"}, "MDA-MB-231 DTCCs [3]": {"system": "MDA-MB-231 DTCCs", "test": "Fluorescent lipid uptake by flow cytometry, DTCCs vs DNCCs", "type": "cell-based, human", "conditions": "for uptake into DTCCs vs. DNCCs: fluorescently labeled lipids, flow cytometry"}, "MDA-MB-468": {"system": "MDA-MB-468", "test": "Fluorescent lipid uptake by flow cytometry, DTCCs vs DNCCs", "type": "cell-based, human", "conditions": "multiple TNBC cell lines using epithelial-like MDA-MB-468"}, "DTCCs": {"system": "DTCCs", "test": "Western blot of DTCCs after transient exposure to Rad-NP or radicicol free drug", "type": "cell-based", "conditions": "4 hours exposure, wash-out; in most cases", "protocol": "Protein samples were resolved by SDS-PAGE and transferred to PVDF membranes prior to incubation at 4° C. with indicated primary antibodies, mTOR and pMTOR^Ser2448, pAKT^Thr308 and AKT, Phospho-p44/42 MAPK (Erk1/2)^Thr202/Tyr204, p44/42 MAPK (Erk1/2) pPRAS40^Thr246 pSTAT3^Tyr705, STAT3, PRAS40 and β-Actin antibodies were purchased from Cell Signaling Technology, pHck^Tyr410 (Thermo Fisher Scientific) MICA/B (R&D Systems, Minneapolis, MN) and HSF-1 and HSF-1^Ser326 (abcam)."}, "SUM 159 DTCCs": {"system": "SUM 159 DTCCs", "test": "MICA/B expression by flow cytometry in DTCCs under Hsp90 inhibitors", "type": "cell-based, human", "conditions": "% MICA/B positively expressing cells, vehicle 30.6 ± 0.9", "protocol": "(§1) Two schedules of drugs in combination were administered to the indicated TNBC parental cell lines (A). […] Plots generated using constant ratio drug combination. […] N=11 in biological replicate. • (D) Quantification of MICA/B mean fluorescence, corrected for background by negative control. […] N≥4 in biological replicate. • (I) In vitro drug synergy was determined using the Chau-Talalay method. Two schedules of drugs in combination were administered to the indicated TNBC parental cell lines (A). […] Plots generated using constant ratio drug combination. Values falling below 1.0 combination index=synergy. • (J) In silico prediction model of drug schedule on signaling pathways. […] The first drug was administered at the beginning of the experiment (t=0), followed by the second drug after 48 h (t=48). […] GAPDH loading control.\n(§2) Human MDA-MB-231, MDA-MB-468, MDA-MB-436, MCF-7, mammary carcinoma 4T-1 cells (ATCC) and SUM159 (Bioivt) were purchased in the last 10 years and cultured in 10% fetal bovine serum in DMEM or RPMI media (Invitrogen, Carlsbad CA, USA). Cell lines were validated for absence of mycoplasma prior to use, by the sourcing agency. Cells were used within 10 passages from frozen stock vials obtained from the sourcing agency."}, "MDA-MB-468 DTCCs": {"system": "MDA-MB-468 DTCCs", "test": "MICA/B expression by flow cytometry in DTCCs under Hsp90 inhibitors", "type": "cell-based, human", "conditions": "% MICA/B positively expressing cells, vehicle 54.7 ± 3.9", "protocol": "as §1, §2"}, "MDA-MB-231 DTCCs [4]": {"system": "MDA-MB-231 DTCCs", "test": "MICA/B expression by flow cytometry in DTCCs under Hsp90 inhibitors", "type": "cell-based, human", "conditions": "% MICA/B positively expressing cells, overnight (radicicol 5 μM, FIG. 3C), vehicle 76.2 ± 1.1", "protocol": "as §1, §2"}}}
{"molecule": "Oc1cccc(-c2nc(N3CCOCC3)c3oc4ncccc4c3n2)c1", "note": "[PI-103]", "values": [{"measurement": "incorporation efficiency", "setting": "[1]", "result": "55-65%"}]}
{"molecule": "C/C(=C\\c1csc(C)n1)[C@@H]1C[C@@H]2O[C@]2(C)CCC[C@H](C)[C@H](O)[C@@H](C)C(=O)C(C)(C)[C@@H](O)CC(=O)N1", "note": "[Ixabepilone]", "values": [{"measurement": "Cmax (concentration used)", "setting": "[2]", "result": 252, "unit": "ng/mL"}]}
{"molecule": "CC(=O)O[C@H]1C(=O)[C@@]2(C)[C@H]([C@H](OC(=O)c3ccccc3)[C@]3(O)C[C@H](OC(=O)[C@H](O)[C@@H](NC(=O)c4ccccc4)c4ccccc4)C(C)=C1C3(C)C)[C@]1(OC(C)=O)CO[C@@H]1C[C@@H]2O", "note": "[Paclitaxel]", "values": [{"measurement": "Cmax", "setting": "[2]", "result": 6.91, "unit": "µM"}]}
{"molecule": "N.N.O=C([O-])C1(C(=O)[O-])CCC1.[Pt+2]", "note": "[Carboplatin]", "values": [{"measurement": "Cmax (concentration used)", "setting": "[2]", "result": 37100, "unit": "ng/mL"}]}
{"molecule": "CCCCCCCC/C=C\\CCCCCCCC(=O)OC[C@H](COP(=O)(O)O)OC(=O)CCCCCCCCCCCNc1ccc([N+](=O)[O-])c2nonc12.N.N", "note": "[phosphatidic acid (PA), 1-oleoyl-2-{12-[(7-nitro-2-1,3-benzoxadiazol-4-yl)amino]dodecanoyl}-sn-glycero-3-phosphate (ammonium salt)]", "values": [{"measurement": "uptake into DTCCs vs. DNCCs", "setting": "MDA-MB-231 DTCCs [3]", "result": "to a lesser degree"}]}
{"molecule": "Nc1ccc(-c2cccc3c(=O)cc(N4CCOCC4)oc23)cc1", "note": "[PI-828]", "values": [{"measurement": "incorporation efficiency", "setting": "[1]", "result": "~40", "unit": "%"}]}
{"molecule": "CC(CCC[C@@H](C)[C@@H]1CC[C@H]2[C@@H]3CC=C4C[C@@H](O)CC[C@]4(C)[C@H]3CC[C@@]21C)N(C)c1ccc([N+](=O)[O-])c2nonc12", "note": "(some centres unmarked) [cholesterol, 25-[N-[(7-nitro-2-1,3-benzoxadiazol-4-yl)methyl]amino]-27-norcholesterol]", "values": [{"measurement": "uptake into DTCCs vs. DNCCs", "setting": "MDA-MB-231 DTCCs [3]", "result": "significantly increased uptake into DTCCs vs. DNCCs"}, {"measurement": "specificity of binding to DTCCs", "setting": "MDA-MB-468", "result": "bound with the highest degree of specificity"}]}
{"molecule": "CC(=O)O[C@@]12CO[C@@H]1C[C@H](O)[C@@]1(C)C(=O)[C@H](O)C3=C(C)[C@@H](OC(=O)[C@H](O)[C@@H](NC(=O)OC(C)(C)C)c4ccccc4)C[C@@](O)([C@@H](OC(=O)c4ccccc4)[C@H]21)C3(C)C", "note": "[Docetaxel, docetaxel]", "values": [{"measurement": "Cmax (concentration used)", "setting": "[2]", "result": 2000, "unit": "ng/mL"}, {"measurement": "active form of HSF-1 (Ser326)", "setting": "Hsp90; parental MDA-MB-231 cells under docetaxel drug pressure, western blot", "result": "induced the active form of HSF-1 (Ser326)"}]}
{"molecule": "CCCCCOC(=O)Nc1nc(=O)n([C@@H]2O[C@H](C)[C@@H](O)[C@H]2O)cc1F", "note": "[Capecitabine]", "values": [{"measurement": "Cmax (concentration used)", "setting": "[2]", "result": 3900, "unit": "ng/mL"}]}
{"molecule": "C[C@@H]1C[C@H]2O[C@@H]2/C=C\\C=C\\C(=O)Cc2c(Cl)c(O)cc(O)c2C(=O)O1", "note": "[Radicicol, radicicol]", "values": [{"measurement": "time of rescue of signaling disruption", "setting": "DTCCs", "result": "≤ 36", "unit": "h"}]}
{"molecule": "CC(C)NCCCn1c(Sc2cc3c(cc2I)OCO3)nc2c(N)ncnc21", "note": "[PU-H71]", "values": [{"measurement": "cytoplasmic sequestration of HSF-1 Ser326 and activation of pro-survival proteins", "setting": "Hsp90; DTCCs, confocal microscopy and western blot", "result": "reversed cytoplasmic sequestration of HSF-1^Ser326 and activation of pro-survival proteins"}, {"measurement": "MICA (%) ± SEM", "setting": "SUM 159 DTCCs", "result": "33.3 ± 4.1", "unit": "%"}, {"measurement": "MICA (%) ± SEM", "setting": "MDA-MB-468 DTCCs", "result": "71.9 ± 4.2", "unit": "%"}, {"measurement": "MICA (%) ± SEM", "setting": "MDA-MB-231 DTCCs [4]", "result": "79.5 ± 0.4", "unit": "%"}]}
{"molecule": "Pembrolizumab: clinically-approved anticancer drug", "values": [{"measurement": "Cmax (concentration used)", "setting": "[2]", "result": 65700, "unit": "ng/mL"}]}
{"molecule": "C=C1C[C@@H]2CC[C@@]34C[C@H]5O[C@H]6[C@@H](O3)[C@H]3O[C@H](CC[C@@H]3O[C@H]6[C@H]5O4)CC(=O)C[C@@H]3[C@@H](OC)[C@@H](C[C@H](O)CN)O[C@H]3C[C@H]3O[C@@H](CC[C@@H]1O2)C[C@@H](C)C3=C", "note": "[Eribulin]", "values": [{"measurement": "Cmax (concentration used)", "setting": "[2]", "result": 371, "unit": "ng/mL"}]}
{"molecule": "CCCCCCCC/C=C\\CCCCCCCC(=O)OC[C@H](COP(=O)([O-])OCC[N+](C)(C)C)OC(=O)CCCCCNc1ccc([N+](=O)[O-])c2nonc12", "note": "[phosphatidylcholine (PC), 1-oleoyl-2-{6-[(7-nitro-2-1,3-benzoxadiazol-4-yl)amino]hexanoyl}-sn-glycero-3-phosphocholine]", "values": [{"measurement": "rate of internalization in DTCC vs DNCC", "setting": "MDA-MB-231 DTCCs [3]; checked at definite time intervals", "result": "higher rate of internalization"}, {"measurement": "uptake into DTCCs vs. DNCCs", "setting": "MDA-MB-231 DTCCs [3]", "result": "significantly increased uptake into DTCCs vs. DNCCs"}, {"measurement": "specificity of binding to DTCCs", "setting": "MDA-MB-468", "result": "bound with the highest degree of specificity"}]}
{"molecule": "CCC1=C[C@@H]2CN(C1)Cc1c([nH]c3ccccc13)[C@@](C(=O)OC)(c1cc3c(cc1OC)N(C)[C@H]1[C@@](O)(C(=O)OC)[C@H](OC(C)=O)[C@]4(CC)C=CCN5CC[C@]31[C@@H]54)C2", "note": "[Vinorelbine]", "values": [{"measurement": "Cmax (concentration used)", "setting": "[2]", "result": 126.6, "unit": "ng/mL"}]}
{"molecule": "Nc1ccn([C@@H]2O[C@H](CO)[C@@H](O)C2(F)F)c(=O)n1", "note": "[Gemcitabine]", "values": [{"measurement": "Cmax (concentration used)", "setting": "[2]", "result": 22300, "unit": "ng/mL"}]}
{"molecule": "CC(C)c1cc(-c2n[nH]c(=O)n2-c2ccc3c(ccn3C)c2)c(O)cc1O", "note": "[Ganetespib, ganetespib]", "values": [{"measurement": "MICA (%) ± SEM", "setting": "SUM 159 DTCCs", "result": "35.4 ± 6.0", "unit": "%"}, {"measurement": "MICA (%) ± SEM", "setting": "MDA-MB-468 DTCCs", "result": "70.1 ± 3.0", "unit": "%"}, {"measurement": "MICA (%) ± SEM", "setting": "MDA-MB-231 DTCCs [4]", "result": "82.5 ± 2.2", "unit": "%"}]}
